# According to the supplement of paper PMC10307832:
# How the values were obtained:
# Assay in all cases: relative viability (nuclei count vs DMSO), 5 days (fraction); higher = more cells survive
# IPA-3 + Linsitinib = compound: C1=CC=C2C(=C1)C=CC(=C2SSC3=C(C=CC4=CC=CC=C43)O)O [IPA-3] + C[C@]1(O)C[C@@H](c2nc(-c3ccc4ccc(-c5ccccc5)nc4c3)c3c(N)nccn32)C1 [Linsitinib] (partner 1 µM)
# In short: (§1)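 Dosing by pin tool came one day after lung cancer cell lines were seeded in 1536-well plates, using either one drug or a fixed anchor-drug dose plus five library-drug doses (not always all listed) in √10 steps. After 5 days, nuclei were counted on 4× images. Relative viability is treated-well nuclei count divided by vehicle-well nuclei count, and values are medians of duplicate plates.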
# Doramapimod + Navitoclax = compound: Cc1ccc(-n2nc(C(C)(C)C)cc2NC(=O)Nc2ccc(OCCN3CCOCC3)c3ccccc23)cc1 [Doramapimod] + CC1(C)CCC(c2ccc(Cl)cc2)=C(CN2CCN(c3ccc(C(=O)NS(=O)(=O)c4ccc(N[C@H](CCN5CCOCC5)CSc5ccccc5)c(S(=O)(=O)C(F)(F)F)c4)cc3)CC2)C1 [Navitoclax] (partner 0.5 µM)
# In short: as §1
# RAF265 + Foretinib = compound: Cn1c(Nc2ccc(C(F)(F)F)cc2)nc2cc(Oc3ccnc(-c4ncc(C(F)(F)F)[nH]4)c3)ccc21 [RAF265] + COc1cc2c(Oc3ccc(NC(=O)C4(C(=O)Nc5ccc(F)cc5)CC4)cc3F)ccnc2cc1OCCCN1CCOCC1 [Foretinib] (partner 0.25 µM)
# In short: as §1
# RAF265 + Alpelisib = compound: Cn1c(Nc2ccc(C(F)(F)F)cc2)nc2cc(Oc3ccnc(-c4ncc(C(F)(F)F)[nH]4)c3)ccc21 [RAF265] + Cc1nc(NC(=O)N2CCC[C@H]2C(N)=O)sc1-c1ccnc(C(C)(C)C(F)(F)F)c1 [Alpelisib] (partner 2 µM)
# In short: as §1
Cell Line,relative viability (IPA-3 + Linsitinib; first compound 0.2 µM),relative viability (IPA-3 + Linsitinib; first compound 0.6325 µM),relative viability (IPA-3 + Linsitinib; first compound 2 µM),relative viability (IPA-3 + Linsitinib; first compound 6.325 µM),relative viability (IPA-3 + Linsitinib; first compound 20 µM),relative viability (Doramapimod + Navitoclax; first compound 0.02 µM),relative viability (Doramapimod + Navitoclax; first compound 0.06325 µM),relative viability (Doramapimod + Navitoclax; first compound 0.2 µM),relative viability (Doramapimod + Navitoclax; first compound 0.6325 µM),relative viability (Doramapimod + Navitoclax; first compound 2 µM),relative viability (RAF265 + Foretinib; first compound 0.01 µM),relative viability (RAF265 + Foretinib; first compound 0.03162 µM),relative viability (RAF265 + Foretinib; first compound 0.1 µM),relative viability (RAF265 + Foretinib; first compound 0.3162 µM),relative viability (RAF265 + Foretinib; first compound 1 µM),relative viability (RAF265 + Alpelisib; first compound 0.01 µM),relative viability (RAF265 + Alpelisib; first compound 0.03162 µM),relative viability (RAF265 + Alpelisib; first compound 0.1 µM),relative viability (RAF265 + Alpelisib; first compound 0.3162 µM),relative viability (RAF265 + Alpelisib; first compound 1 µM)
EMC-BAC-2,0.855,0.808,0.884,0.804,0.907,1.18,1.17,1.16,1.25,0.99,1.09,0.741,0.753,0.685,0.276,0.735,0.682,0.692,0.52,0.263
NCI-H1355,0.942,0.82,0.786,0.742,0.895,0.943,0.947,0.956,0.923,0.867,0.65,0.923,0.823,0.464,0.38,0.829,0.791,0.794,0.427,0.229
NCI-H23,0.613,0.667,0.522,0.603,0.645,0.905,0.794,0.763,0.882,0.832,0.741,0.847,0.739,0.724,0.442,0.738,0.601,0.643,0.416,0.222
NCI-H1651,1.1,–,1.07,1.04,1.05,0.624,0.911,0.996,1.04,1.06,0.86,0.808,0.75,0.844,0.584,0.95,0.919,1.03,0.734,0.774
NCI-H1975,1.06,1.01,1.02,1.03,1.09,1.2,1.19,0.991,1.16,0.981,0.88,0.74,0.639,0.383,0.333,0.589,0.427,0.306,0.234,0.173
COR-L23,1.13,0.837,0.92,0.797,0.819,1.1,0.989,1,1.07,1.02,1.01,0.962,0.864,0.893,0.644,0.785,0.696,0.669,0.389,0.304
LOU-NH91,0.985,0.92,0.979,0.99,1.14,0.683,0.588,0.627,0.63,0.452,1.04,0.845,0.954,0.582,0.71,0.747,0.667,0.739,0.557,0.495
NCI-H441,0.568,0.568,0.611,0.541,0.515,0.857,–,0.558,0.818,0.353,1.28,1.04,0.966,0.884,0.623,0.793,–,0.429,0.392,0.311
NCI-H647,1.52,1.01,1.11,0.641,0.38,1.09,1.13,1.12,1.09,1.12,1.14,0.867,0.957,0.979,0.659,0.923,0.933,0.594,0.477,0.585
NCI-H1915,1.12,1.13,1.11,1.08,1.09,0.843,0.838,0.85,0.801,0.761,1.09,1.05,0.869,0.348,0.306,1.07,0.945,0.908,0.543,0.296
NCI-H1299,1.16,0.99,0.942,0.946,0.999,1.1,1.13,1.12,1.05,1.09,1.12,0.863,1.08,1.07,0.749,0.981,1.06,0.966,0.589,0.616
NCI-H1734,0.995,0.849,0.884,0.92,1.07,0.723,0.799,0.692,0.77,0.572,0.858,0.701,0.627,0.647,0.454,0.668,0.529,0.589,0.532,0.333
NCI-H1993,0.707,0.688,0.761,0.782,0.612,0.952,0.749,0.966,0.918,0.834,0.86,0.729,0.783,0.777,0.575,0.648,0.648,0.77,0.761,0.715
LK-2,0.553,0.436,0.595,0.526,0.518,0.731,0.757,0.695,0.72,0.741,1.07,1.13,0.952,1.05,0.862,1.07,1.08,1.18,0.655,0.778
HCC-78,0.569,0.597,0.454,0.583,0.635,0.834,0.81,0.81,0.874,0.777,0.512,0.587,0.583,0.617,0.526,0.33,0.358,0.432,0.291,0.249
NCI-H2405,0.953,0.923,0.936,0.912,1.03,0.901,0.831,0.812,1.33,0.804,1.03,1.01,1,0.935,0.701,0.808,0.858,0.863,0.712,0.297

Cell Line,relative viability (IPA-3 + Linsitinib; first compound 0.2 µM),relative viability (IPA-3 + Linsitinib; first compound 0.6325 µM),relative viability (IPA-3 + Linsitinib; first compound 2 µM),relative viability (IPA-3 + Linsitinib; first compound 6.325 µM),relative viability (IPA-3 + Linsitinib; first compound 20 µM),relative viability (Doramapimod + Navitoclax; first compound 0.02 µM),relative viability (Doramapimod + Navitoclax; first compound 0.06325 µM),relative viability (Doramapimod + Navitoclax; first compound 0.2 µM),relative viability (Doramapimod + Navitoclax; first compound 0.6325 µM),relative viability (Doramapimod + Navitoclax; first compound 2 µM),relative viability (RAF265 + Foretinib; first compound 0.01 µM),relative viability (RAF265 + Foretinib; first compound 0.03162 µM),relative viability (RAF265 + Foretinib; first compound 0.1 µM),relative viability (RAF265 + Foretinib; first compound 0.3162 µM),relative viability (RAF265 + Foretinib; first compound 1 µM),relative viability (RAF265 + Alpelisib; first compound 0.01 µM),relative viability (RAF265 + Alpelisib; first compound 0.03162 µM),relative viability (RAF265 + Alpelisib; first compound 0.1 µM),relative viability (RAF265 + Alpelisib; first compound 0.3162 µM),relative viability (RAF265 + Alpelisib; first compound 1 µM)
HOP-62,0.903,1.07,0.754,1.05,1.2,1.1,1.1,1.17,1.04,1.05,1.14,0.979,0.973,1.04,0.852,0.966,–,0.948,1.07,0.58
BEN,0.986,1.01,0.974,1.05,1.18,0.0531,0.0454,0.0875,0.0584,0.0743,0.665,0.776,0.701,0.664,0.568,1.08,1.05,1.2,1.1,0.814
SW 1573,1.07,0.921,0.682,0.833,0.843,1.11,0.83,1.05,0.78,0.789,1,1.01,0.887,0.792,0.732,1,0.638,0.645,0.574,0.343
SK-MES-1,1.13,1.01,1.07,1.07,1.02,1.16,1.25,1.23,1.25,0.99,1.04,0.932,0.816,0.529,0.369,0.942,0.807,0.337,0.242,0.183
NCI-H1755,1.03,0.94,0.981,0.984,1.04,0.997,1,1,1.06,0.968,0.951,0.884,0.926,0.727,0.568,0.966,0.864,0.779,0.486,0.408
NCI-H2023,0.85,0.681,0.841,0.735,0.921,1.09,1.08,0.892,1,0.948,0.86,0.875,0.893,–,0.553,0.554,0.625,0.721,0.639,0.508
LC-2-ad,0.885,0.845,0.86,0.795,0.86,0.399,0.342,0.377,0.422,0.357,1.22,0.921,0.94,0.863,0.645,0.771,0.727,0.724,0.35,0.202
NCI-H1666,0.865,0.87,0.857,0.763,0.693,0.991,0.838,1.04,0.918,0.789,1.11,0.936,0.985,1.01,0.81,1.1,1.11,0.942,0.815,0.547
EBC-1,1.12,0.729,0.911,0.841,0.871,0.428,0.335,0.332,0.417,0.372,0.101,0.112,0.0984,0.107,0.113,0.907,0.794,0.495,0.403,0.541
201T,0.986,0.992,1.04,1.04,1.09,1.27,1.24,1.2,1.29,1.28,1.1,1.1,1.09,1.21,0.945,0.981,1.02,1.07,1.06,0.981
NCI-H2009,1.26,1.17,1.24,1.13,1.18,1.25,1.18,1.2,1.29,1.19,1.29,1.25,1.14,1.1,0.658,1.21,1.11,1.03,1.05,0.594
NCI-H1395,1.2,1.04,1.19,1.02,1.11,1.17,1.12,1.1,1.12,1.06,0.915,1.02,0.972,0.972,0.697,1.07,0.993,1.04,0.835,0.792
NCI-H2228,0.706,0.857,0.642,0.715,0.887,0.669,0.786,1.05,0.913,0.605,0.893,0.819,0.781,0.542,0.386,0.791,0.718,0.436,0.299,0.29
LU99A,0.563,0.476,0.553,0.517,0.547,0.662,0.645,0.818,0.977,0.798,0.837,0.745,0.624,0.522,0.332,0.474,0.384,0.347,0.252,0.21
NCI-H1437,1.25,0.933,0.988,0.975,1.3,1.09,1.1,1.16,1.09,1.05,1.22,1.28,1.28,1.33,1.31,0.956,1.02,0.973,0.944,0.778
